“Also recorded” adds a separate entry of the source.
Legend:
human cells = test: 18O2-GASSP labelling of human cells, untargeted polar metabolomics, with or without IOX1; format: cell-based; conditions: A498 and SKNDZ cells, 3%, 1%, 0.2% 18O2, IOX1 24 hours
Protocol: To map the molecular fate of O2 in metabolic pathways in living cells, GASSP was used to carry out ^18O2 labelling in cell lines of different tissue origins at ^18O2 concentrations that represented physiological (3%), hypoxic (1%), and severely hypoxic (0.2%) oxygen tensions found in tissues and tumours^7. At the end of each run, polar metabolites were extracted and untargeted polar metabolomics using liquid chromatography-high resolution mass spectrometry (LC-MS) were carried out to identify metabolites labeled with ^18O.
A list of unique features identified by untargeted metabolomics that were >0.25% (natural abundance of ^18O is 0.2%) labelled by ^18O atoms in each cell line at each oxygen tension was generated. In addition, background signal was controlled by requiring that ^18O labeled peaks had to have a signal that was two-fold greater than naturally occurring isotopes found in non-labelled (^16O) metabolite cell extracts. To determine the proportion of unique ^18O labelled features that were due to dioxygenase activity, cells were treated with a pan-dioxygenase inhibitor (IOX1) at concentrations that inhibit iron-dependent dioxygenases, such as the HIF1α prolyl hydroxylases (FIGS. 5E-5F) and identified ^18O labelled polar metabolites. This list of ^18O metabolites was generated by identifying all features in the unlabelled samples, filtering these features against blank samples to remove background peaks, and calculating the fractional ^18O labelling with the assumption that a metabolite would have no more than three oxygen atoms labelled, followed by manual curation of labelled features (FIG. 1B and FIG. 5G). […] These ^18O-labelled features were termed the oxy-metabolome.
To determine the identities of the labeled metabolites, the list of ^18O labelled features was annotated to their corresponding unlabelled metabolites using retention time matching, tandem mass spectrometry (MS2) fragmentation patterns, and database searching.
(§1) All steps involved in setting up labelling with ^18O2 were performed at room temperature and inside a chemical fume hood. The procedure may vary depending on the type and number of tissue culture plates in the chamber and the amount of media in the plates. Users must test the system by using ^16O2:CO2:N2 or other unlabelled gases to optimize conditions for their needs and avoid consumption of costly labelled gases. Cells were treated with or without 5 μM MG132, 500 μM IOX1, 250 μM DFO, or 70 μM ascorbate, before placing tissue culture plates into the modular incubator chamber (MIC) containing a wireless oxygen sensor and a 15 cm dish of water to maintain humidity. Next, the clamps were closed to form an air-tight seal between the lid and platform of the MIC. […] N2 flushing was repeated for a total of three times, or until the sensor in the chamber stabilized at 0% O2 for 10 minutes.

MIAPACA2 cells = test: 18O2-GASSP labelling of MIAPACA2 cells treated with MG132, IOX1, DFO or ascorbate; format: cell-based, human
Protocol: As additional controls, MIAPACA2 cells were treated with an iron chelator (DFO, FIG. 5E-5F), a proteasome inhibitor (MG132) to induce proteotoxic stress, and physiological levels of ascorbate, an antioxidant, to determine the effects of ROS on ^18O-labelling. Labelling of ^18O γ-butyrobetaine was blocked by IOX1 and DFO, consistent with the fact that trimethyllysine hydroxylase (TMLH) is an iron-dependent dioxygenase (FIGS. 7A-7D). […] Total levels of ^18O labelled methionine sulfoxide increased upon MG132 treatment and decreased following ascorbate treatment (FIGS. 7I-7M)^10.
as §1
Next, the inlet valve was opened and the ^18O2:5% CO2:N2 gaseous mixture was flushed into the system at a rate of 2.5 L/min. Subsequently, the outlet valve was immediately opened to allow gas flow out of the chamber, and to release the pressure in the system. The chamber was injected with the ^18O2:5% CO2:N2 gaseous mixture for 1 minute before the inlet and outlet valves were closed simultaneously. The chamber was allowed to equilibrate for 5 minutes. This process was repeated seven times, or until the desired oxygen concentration was reached and was stable. For 3%, 1%, and 0.2% ^18O2 labelling studies, the chamber was infused with 5%:5%:90%, 1.5%:5%:93.5%, and 0.5%:5%:94.5% ^18O2:CO2:N2, respectively. The ^18O2-infused MIC was then placed in a 37° C., 5% CO2 tissue culture incubator for 24 hours. The oxygen concentration in the chamber was monitored regularly. Oxygen measurements after 20 hours was not feasible due to the battery life of the sensor. At the end of the experiment, the chamber was opened inside a chemical fume hood before metabolite extraction.
For metabolomics, briefly, cells were washed in 4° C. 0.9% saline and metabolites were extracted with 46% methanol:23% H2O:[…] chloroform that contained a labelled amino acid standard mix (MSK-A2-1.2, Cambridge Isotope Laboratories, Inc.). Enzymatic assay samples were extracted using 80% methanol: 20% H2O that contained labelled amino acid standards. Extracts were placed into 1.5 mL Eppendorf tubes, vortexed at 4° C. for 10 min and centrifuged at 4° C. for 10 min at 17,200×g in a microcentrifuge. The aqueous phase was transferred to vials for GC-MS or Eppendorf tubes for LC-MS. Polar samples were evaporated in a SpeedVac and samples were resolved by GC-MS or LC-MS. Lipid samples were dried using a stream of N2 (for ^18O labelling studies) or air. Metabolite and lipid extracts were submitted to the NYULMC Metabolomics Core Resource Laboratory.
For polar metabolomics, the LC column was a Millipore ZIC-pHILIC (2.1×150 […], 5 μm bead size) coupled to a Dionex UltiMate 3000 system. The column oven temperature was held at 25° C. The flow rate was 100 μL/min, and the injection volume was 1 μL. Buffer A was 10 mM ammonium carbonate in water, pH 9, and Buffer B was neat acetonitrile. The gradient profile was 80-20% B (0-30 min), 20-80% B (30-31 min), and 80-80% B (31-42 min). MS Analyses were carried out on a Thermo Q Exactive HF mass spectrometer using a heated electrospray ionization (HESI) source. […]

With O=C(O)c1ccc(O)c2ncccc12 [IOX1] the “4-HMA 18O labeling” value (human cells) was “decreased”, the “18O labelling of methionine” value (MIAPACA2 cells; 3%, 1%, 0.2% 18O2, 24 hours) was “sensitive; also recorded: blocked” and the “18O labelling of γ-butyrobetaine” value (MIAPACA2 cells; 3%, 1%, 0.2% 18O2, 24 hours) was “sensitive; also recorded: blocked”. For the same compound, the “18O labelling of 4-HMA” value (MIAPACA2 cells; MIAPACA2, 3%, 1%, 0.2% 18O2, 24 hours, 500 μM IOX1, 250 μM DFO) was “sensitive; also recorded: significantly attenuated” and the 4-HMA levels (MIAPACA2 cells; MIAPACA2, 18O2 labelling, 24 hours, 500 μM IOX1, 250 μM DFO, 70 μM ascorbate) was “significantly attenuated”.

Reference: patent publication US12558329B2 (New York University, priority 2021, dated 2026)
